Measured values published in patent publication US11840528B2 (Hoffmann-La Roche Inc., priority 2018, dated 2023).

Assays:
h-GABA-A α5β3γ2 [1] = biological target: T1, h-GABA-A α5β3γ2 (Homo sapiens, UniProt P18507+P31644); experiment: Two-electrode voltage clamp electrophysiology in Xenopus laevis oocytes expressing GABAA receptors, modulation of GABA EC20 current; type: cell-based; set-up: host or cells: Xenopus laevis oocytes micro-injected with RNA transcripts of the subunits; conditions: Table 1; for Efficacy (GABA) %: % modulation of GABA EC20 = 100*(Fold increase-1); for Fold increase h-GABA-A α5β3γ2 oocyte: test compound at approx. 30 fold its Ki, GABA at EC20
Outline: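 Modulation is reported as % of the GABA EC20 current, calculated as 100*(Fold increase−1) from the peak ratio between a second GABA response carrying compound (applied at roughly 30-fold Ki) and a preceding control response. Oocytes expressing human α5β3γ2 were clamped at −80 mV at room temperature, 3–5 days after injection.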

h-GABA-A α5β3γ2 [2] = biological target: T1, h-GABA-A α5β3γ2; experiment: [3H]flumazenil competition binding assay, membranes of HEK293 cells expressing GABAA receptors; conditions: displacement of [3H]-Flumazenil 0.5 nM, HEK293 cells expressing human receptors, mean of two determinations; Table 1
Outline: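 Receptor source: human α5β3γ2 transiently transfected into HEK293 cells, membranes in pH 7.5 Krebs-tris. Filtration through GF/C, then scintillation counting.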

SMILES | Efficacy (GABA) % (h-GABA-A α5β3γ2 [1]) [%] | Fold increase h-GABA-A α5β3γ2 oocyte (h-GABA-A α5β3γ2 [1]) | Ki (h-GABA-A α5β3γ2 [2]) [nM]
Cc1ccc(-c2noc(C)c2Cn2ncc(-c3ccc(OC(F)F)nc3)cc2=O)cn1 [Example 149, 5-(6-(difluoromethoxy)pyridin-3-yl)-2-((5-methyl-3-(6-methylpyridin-3-yl)isoxazol-4-yl)methyl)pyridazin-3(2H)-one] | 89 | 1.89 | 20.2
Cc1ccc(-c2noc(C)c2Cn2ncc(N3CC(OC(C)(C)C)C3)cc2=O)cn1 [Example 150, 5-(3-tert-butoxyazetidin-1-yl)-2-[[5-methyl-3-(6-methyl-3-pyridyl)isoxazol-4-yl]methyl]pyridazin-3-one] | 85 | 1.85 | 30.4
CCOc1ccc(-c2cnn(Cc3c(-c4ccc(C)nc4)noc3C)c(=O)c2)cn1 [Example 151, 5-(6-ethoxypyridin-3-yl)-2-((5-methyl-3-(6-methylpyridin-3-yl)isoxazol-4-yl)methyl)pyridazin-3(2H)-one] | 119 | 2.19 | 27.2
Cc1ccc(-c2noc(C)c2Cn2ncc(-c3cnn(C4CC4)c3)cc2=O)cn1 [Example 152, 5-(1-cyclopropyl-1H-pyrazol-4-yl)-2-((5-methyl-3-(6-methylpyridin-3-yl)isoxazol-4-yl)methyl)pyridazin-3(2H)-one] | 116 | 2.16 | 28.7
Cc1ccc(-c2noc(C)c2Cn2ncc(-c3cnn(CC(F)F)c3)cc2=O)cn1 [Example 153, 5-(1-(2,2-difluoroethyl)-1H-pyrazol-4-yl)-2-((5-methyl-3-(6-methylpyridin-3-yl)isoxazol-4-yl)methyl)pyridazin-3(2H)-one] | 166 | 2.66 | 24.2
Cc1ccc(-c2noc(C)c2Cn2ncc(-c3cnn(C(F)F)c3)cc2=O)cn1 [Example 154, 5-(1-(difluoromethyl)-1H-pyrazol-4-yl)-2-((5-methyl-3-(6-methylpyridin-3-yl)isoxazol-4-yl)methyl)pyridazin-3(2H)-one] | 244 | 3.44 | 23.7
CCn1cc(-c2cnn(Cc3c(-c4ccc(C)nc4)noc3C)c(=O)c2)cn1 [Example 155, 5-(1-ethyl-1H-pyrazol-4-yl)-2-((5-methyl-3-(6-methylpyridin-3-yl)isoxazol-4-yl)methyl)pyridazin-3(2H)-one] | 133 | 2.33 | 21.6
Cc1ccc(-c2noc(C)c2Cn2ncc(-c3ccnc(N(C)C)c3)cc2=O)cn1 [Example 156, 5-(2-(dimethylamino)pyridin-4-yl)-2-((5-methyl-3-(6-methylpyridin-3-yl)isoxazol-4-yl)methyl)pyridazin-3(2H)-one] | 66 | 1.66 | 2.6
Cc1ccc(-c2noc(C)c2Cn2ncc(-c3cnn(CC4CC4)c3)cc2=O)cn1 [Example 157, 5-(1-(cyclopropylmethyl)-1H-pyrazol-4-yl)-2-((5-methyl-3-(6-methylpyridin-3-yl)isoxazol-4-yl)methyl)pyridazin-3(2H)-one] | 86 | 1.86 | 22.7
Cc1ccc(-c2noc(C)c2Cn2ncc(N3CC(OCC(F)(F)F)C3)cc2=O)cn1 [Example 158, 2-[[5-methyl-3-(6-methyl-3-pyridyl)isoxazol-4-yl]methyl]-5-[3-(2,2,2-trifluoroethoxy)azetidin-1-yl]pyridazin-3-one] | 96 | 1.96 | 9.6
COC1CN(c2cnn(Cc3c(-c4ccc(Cl)cc4)noc3C)c(=O)c2)C1 [Example 160, 2-[[3-(4-chlorophenyl)-5-methyl-isoxazol-4-yl]methyl]-5-(3-methoxyazetidin-1-yl)pyridazin-3-one] | 43 | 1.43 | 7.4
